Results as given in ChEMBL document CHEMBL1201862, “PubChem BioAssay data set” (2004).
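Assay format: 96-well plates, 48-hour exposure. Here, GI50 denotes the concentration required for 50% inhibition of growth.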 The source made the active and inactive calls. Rule as the data show it: active = GI50 up to about 1.1 µM and inactive = higher.

Key:
Assay in all cases: inhibition of tumour cell growth, NCI panel, 48 h
[1] = test system: A498
[2] = test system: RXF 393
[3] = test system: HCT-15
[4] = test system: OVCAR-5
[5] = test system: A549
[6] = test system: Malme-3M
[7] = test system: NCI-H522
[8] = test system: SF-268
[9] = test system: 786-0
[10] = test system: HT-29
[11] = test system: UACC-257
[12] = test system: T47D
[13] = test system: OVCAR-4
[14] = test system: HCT-116
[15] = test system: EKVX
[16] = test system: U-251
[17] = test system: HOP-62
[18] = test system: SK-MEL-2
[19] = test system: RPMI-8226

| Structure (SMILES) | GI50 [1] | GI50 [2] | GI50 [3] | GI50 [4] | GI50 [5] | GI50 [6] | GI50 [7] | GI50 [8] | GI50 [9] | GI50 [10] | GI50 [11] | GI50 [12] | GI50 [13] | GI50 [14] | GI50 [15] | GI50 [16] | GI50 [17] | GI50 [18] | GI50 [19] |
| --- | --- | --- | --- | --- | --- | --- | --- | --- | --- | --- | --- | --- | --- | --- | --- | --- | --- | --- | --- |
| CC1(CC(=O)OC(C#C[Si](C)(C)C)Cc2ccccc2)OCCO1 (stereo unspecified) | > 100 µM (inactive) | > 100 µM (inactive) | > 100 µM | > 100 µM (inactive) | > 100 µM (inactive) | > 100 µM (inactive) | > 100 µM (inactive) | > 100 µM (inactive) | > 100 µM (inactive) | > 100 µM (inactive) | > 100 µM (inactive) | > 100 µM (inactive) | > 100 µM (inactive) | > 100 µM (inactive) | > 100 µM (inactive) | > 100 µM (inactive) | > 100 µM (inactive) | > 100 µM (inactive) |  |
| COC(=O)c1ccc(CCC2=CC(=O)C=CC2=O)cc1 | 18.7 µM (inactive) | 12.5 µM (inactive) | 5.52 µM | 18.2 µM (inactive) | 23.5 µM (inactive) |  | 1.62 µM (inactive) | 15 µM (inactive) | 2.41 µM (inactive) | 23.1 µM (inactive) | 9.08 µM (inactive) | 2.94 µM (inactive) | 17.7 µM (inactive) | 7.8 µM (inactive) | 16 µM (inactive) | 11.2 µM (inactive) | 19.1 µM (inactive) | 16.4 µM (inactive) | 1.8 µM (inactive) |
| COc1ccccc1C(=O)N(C)c1ccc(Cl)c(C(=O)OC(C)C)c1 | 70.6 µM (inactive) |  | 39.5 µM | > 100 µM (inactive) | 49.9 µM (inactive) | > 100 µM (inactive) | 39.5 µM (inactive) | 95.9 µM (inactive) | 36.2 µM (inactive) | > 100 µM (inactive) | 23.1 µM (inactive) | 23.8 µM (inactive) | 35.6 µM (inactive) | 40.3 µM (inactive) | 44.2 µM (inactive) | 67.8 µM (inactive) |  | 61.5 µM (inactive) | 39.4 µM (inactive) |
| COc1cc(C2SC(C)C(=O)N2c2ccc(-c3csc(NS(=O)(=O)c4ccc(Cl)c(OC)c4)n3)cc2)ccc1O (stereo unspecified) | > 100 µM (inactive) | > 100 µM (inactive) | 33.9 µM | > 100 µM (inactive) | > 100 µM (inactive) | 27.8 µM (inactive) | 21.7 µM (inactive) | 29.4 µM (inactive) | 67.3 µM (inactive) | > 100 µM (inactive) | 85.7 µM (inactive) | 40.5 µM (inactive) | 26.3 µM (inactive) | 31.8 µM (inactive) |  | 46.5 µM (inactive) | > 100 µM (inactive) | 48.5 µM (inactive) |  |
| c1ccc(CCN2CCc3[nH]c4ccccc4c3C2)cc1 | 13.9 µM (inactive) | 17.5 µM (inactive) | 23.4 µM | 20 µM (inactive) | 24.6 µM (inactive) | 17.1 µM (inactive) |  | 71.1 µM (inactive) | 17.1 µM (inactive) | 14.1 µM (inactive) | 14.9 µM (inactive) | 20.1 µM (inactive) | 40.4 µM (inactive) | 14.5 µM (inactive) | 33.4 µM (inactive) | 18 µM (inactive) | 19.5 µM (inactive) |  | > 10 µM (inactive) |
| C/C=C(\C)C(=O)OC1CC(OC(C)=O)C2(C(=O)OC)COC3C2C1(C)C1C2(C(=O)OC)OCC1(C3O)C1(O)C3CC(C4(O)C=COC4O3)C1(C)O2 (stereo unspecified) | > 100 µM (inactive) | > 100 µM (inactive) | > 100 µM | > 100 µM (inactive) | > 100 µM (inactive) |  | > 100 µM (inactive) | > 100 µM (inactive) | > 100 µM (inactive) | > 100 µM (inactive) | > 100 µM (inactive) | > 100 µM (inactive) | > 100 µM (inactive) | > 100 µM (inactive) | > 100 µM (inactive) | > 100 µM (inactive) | > 100 µM (inactive) | > 100 µM (inactive) | > 100 µM (inactive) |
| C=C1C(=O)O[C@H]2[C@H]([C@H](C)CCCC(C)=O)O[C@H]([C@@]3(C)CCC(=O)O3)C[C@@H]12 | > 100 µM (inactive) |  | 42 µM | > 100 µM (inactive) | > 100 µM (inactive) | 18.4 µM (inactive) | 26.4 µM (inactive) | 0.0316 µM (active) | 35.2 µM (inactive) | 90.2 µM (inactive) | 77.1 µM (inactive) | 76 µM (inactive) | > 100 µM (inactive) | 22.3 µM (inactive) | 79.3 µM (inactive) | > 100 µM (inactive) | > 100 µM (inactive) | > 100 µM (inactive) | 31.8 µM (inactive) |
| O=C1NC(O)CCN1C1CC(O)C(CO)O1 (stereo unspecified) | > 100 µM (inactive) | > 100 µM (inactive) | > 100 µM | > 100 µM (inactive) | > 100 µM (inactive) | > 100 µM (inactive) | > 100 µM (inactive) | > 100 µM (inactive) | > 100 µM (inactive) |  | > 100 µM (inactive) | > 100 µM (inactive) |  | > 100 µM (inactive) | > 100 µM (inactive) | > 100 µM (inactive) | > 100 µM (inactive) | > 100 µM (inactive) | > 100 µM (inactive) |
| OCC1CCCC1O (stereo unspecified) | > 100 µM (inactive) | > 100 µM (inactive) | > 100 µM | > 100 µM (inactive) | > 100 µM (inactive) | > 100 µM (inactive) | > 100 µM (inactive) | > 100 µM (inactive) | > 100 µM (inactive) | > 100 µM (inactive) | > 100 µM (inactive) | > 100 µM (inactive) | > 100 µM (inactive) | > 100 µM (inactive) |  | > 100 µM (inactive) |  | > 100 µM (inactive) | > 100 µM (inactive) |
| O=S(=O)(CCn1c(Sc2ccccc2)c(Sc2ccccc2)c2ccccc21)c1ccccc1 | > 100 µM (inactive) |  | > 100 µM | > 100 µM (inactive) | > 100 µM (inactive) | > 100 µM (inactive) | > 100 µM (inactive) | > 100 µM (inactive) | > 100 µM (inactive) | > 100 µM (inactive) |  | > 100 µM (inactive) | > 100 µM (inactive) | > 100 µM (inactive) | > 100 µM (inactive) | > 100 µM (inactive) | > 100 µM (inactive) | > 100 µM (inactive) | > 100 µM (inactive) |
| COc1ccc(-c2nc3cc(C(F)(F)F)ccc3n2CC2CCCN3CCCCC23)cc1 (stereo unspecified) | 13.4 µM (inactive) | 16.6 µM (inactive) | 15.7 µM | 27.1 µM (inactive) |  |  | 15.6 µM (inactive) | 15.3 µM (inactive) | 19.5 µM (inactive) | 13.3 µM (inactive) | 13.8 µM (inactive) | 18.5 µM (inactive) | 17.1 µM (inactive) | 18.1 µM (inactive) | 12.1 µM (inactive) | 17 µM (inactive) | 18.7 µM (inactive) | 15.5 µM (inactive) | 14.2 µM (inactive) |
| C=CCSC1=N/C(=C\c2ccc(Cl)cc2)C(=O)N1CC=C | 13.6 µM (inactive) | 19.8 µM (inactive) | 28.2 µM | 63.8 µM (inactive) | 32.7 µM (inactive) |  | 23 µM (inactive) | 40.6 µM (inactive) | 35.7 µM (inactive) | 30.5 µM (inactive) | 26.4 µM (inactive) | 23.4 µM (inactive) | 21.5 µM (inactive) | 25.1 µM (inactive) | 17.1 µM (inactive) | 22 µM (inactive) | 41.9 µM (inactive) | 27.7 µM (inactive) | 17.4 µM (inactive) |
| COC(=O)[C@H]1CO[C@@H](C(C)(C)C)N1C(=O)N1C=CC(=O)C[C@@H]1C | > 100 µM (inactive) | > 100 µM (inactive) |  | > 100 µM (inactive) | > 100 µM (inactive) | > 100 µM (inactive) | > 100 µM (inactive) | > 100 µM (inactive) | > 100 µM (inactive) | > 100 µM (inactive) | > 100 µM (inactive) | > 100 µM (inactive) |  | > 100 µM (inactive) | > 100 µM (inactive) | > 100 µM (inactive) | > 100 µM (inactive) | > 100 µM (inactive) | > 100 µM (inactive) |
| COC1CC(N)C(O)C(C)O1 (stereo unspecified) | > 100 µM (inactive) | > 100 µM (inactive) | > 100 µM | > 100 µM (inactive) |  | > 100 µM (inactive) | > 100 µM (inactive) | > 100 µM (inactive) | > 100 µM (inactive) | > 100 µM (inactive) | > 100 µM (inactive) | > 100 µM (inactive) | > 100 µM (inactive) | > 100 µM (inactive) | > 100 µM (inactive) | > 100 µM (inactive) | > 100 µM (inactive) |  | > 100 µM (inactive) |
| CC1(C)CCC[C@](C)([C@H]2CC[C@]3(C)[C@@H]2[C@H](O)C[C@@H]2[C@@]4(C)CC[C@H](O)C(C)(C)[C@@H]4[C@H](O)C[C@]23C)O1 | 12.8 µM (inactive) |  | 11.6 µM | 20.1 µM (inactive) | 9.68 µM (inactive) | 19.1 µM (inactive) | 12.1 µM (inactive) | 13.8 µM (inactive) | 19 µM (inactive) | 3.55 µM (inactive) | 13.7 µM (inactive) | 10.6 µM (inactive) | 10.6 µM (inactive) | 15.9 µM (inactive) | 13.6 µM (inactive) | 12.3 µM (inactive) |  | 13 µM (inactive) |  |
| c1ccc2c(c1)nc1n2CCNC1 | > 100 µM (inactive) | > 100 µM (inactive) | > 100 µM | > 100 µM (inactive) | > 100 µM (inactive) |  |  | > 100 µM (inactive) | > 100 µM (inactive) | > 100 µM (inactive) | > 100 µM (inactive) | > 100 µM (inactive) | > 100 µM (inactive) | > 100 µM (inactive) | > 100 µM (inactive) | > 100 µM (inactive) | > 100 µM (inactive) | > 100 µM (inactive) | > 100 µM (inactive) |
